Test results as given in patent US20150329498A1, “IRAK INHIBITORS AND USES THEREOF” (Nimbus Iris, Inc., priority 2014, published 2015).
pIC50: −log10 of the molar value.

What was measured:
[1] = system: IL8 production in THP-1 cells; test: LPS induced IL8 production assay in THP-1 cells; type: cell-based; conditions: Homo sapiens, 300 ng/mL LPS, measured at 16 hours
Description: (§1) Provided compounds were also assayed in an LPS (Lipopolysaccharide) or R848 (TLR-7 agonist) induced cytokine (TNFα and IL8) production assay in THP-1 cells, human white blood cells (hWBC), and human whole blood. The exemplary protocol for this assay in THP-1 cells was as follows below.
(§2) THP-1 cells from ATCC (TIB-202) were cultured in RPMI Medium 1640 (Invitrogen, Cat No. A10491-01), 10% fetal bovine serum (Invitrogen, Cat No. 10099141, Lot No. 8172882) containing 100 U/mL Penicillin, 100 μg/mL streptomycin (Invitrogen, Cat No. 15140-122), and 50 uM 2-Mercaptoethanol (Invitrogen, Cat No. 21985023). LPS-EK ultra pure (Invivogen, Cat No. tlrl-peklps) was used to induce IL8 and TNFα production, that was detected in the cell culture supernatant by IL8 HTRF kit (Cisbio, Cat No. 62IL8PEB) and TNFα HTRF kit (Cisbio, Cat No. 62TNFPEB), as per manufacturer instructions. Cells were cultured in 96 well assay plates at 100,000 cells per well, and compounds diluted in final 0.3% DMSO were pre-incubated with cells for 1 hour prior to stimulation with 300 ng/mL LPS. Cytokine production in cell supernatant was measured at 5 hours for TNFα production, and at 16 hours for IL8 production and assessment of cell viability.
(§3) The compound numbers correspond to the compound numbers in Table 1. Compounds having an activity designated as “A” provided an IC50≦0.5 μM; compounds having an activity designated as “B” provided an IC50 of 0.5-5.0 μM; compounds having an activity designated as “C” provided an IC50>5.0 μM. “NA” stands for “not assayed.”

[2] = system: TNFα production in THP-1 cells; test: LPS induced TNFα production assay in THP-1 cells; type: cell-based; conditions: Homo sapiens, 300 ng/mL LPS, measured at 5 hours
Description: as §1, §2, §3

IRAK4 = target: T1, IRAK4 (Homo sapiens, UniProt Q9NWZ3); test: IRAK-4 activity inhibition assay (Caliper); type: biochemical; conditions: 3.5 nM IRAK4, 1.5 μM Peptide 8, 37 μM ATP
T1 construct: purchased CARNA Bioscience 09-145
T1 sequence (Q9NWZ3 1-460): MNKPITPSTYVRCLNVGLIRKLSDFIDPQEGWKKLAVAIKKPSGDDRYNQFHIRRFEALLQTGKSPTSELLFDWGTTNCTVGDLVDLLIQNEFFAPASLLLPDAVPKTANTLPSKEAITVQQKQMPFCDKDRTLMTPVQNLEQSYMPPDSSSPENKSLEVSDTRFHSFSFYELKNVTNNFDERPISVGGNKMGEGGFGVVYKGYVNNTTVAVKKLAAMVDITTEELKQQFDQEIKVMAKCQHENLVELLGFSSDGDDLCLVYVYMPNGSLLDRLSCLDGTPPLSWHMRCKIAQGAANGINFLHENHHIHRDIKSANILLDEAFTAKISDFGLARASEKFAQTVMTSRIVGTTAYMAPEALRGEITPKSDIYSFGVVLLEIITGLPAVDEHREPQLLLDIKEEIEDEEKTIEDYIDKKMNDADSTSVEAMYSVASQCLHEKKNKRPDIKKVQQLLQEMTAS
Description: A 1x kinase base buffer was prepared from 50 mM HEPES, pH 7.5 and 0.0015% Brij-35. A stop buffer was prepared from 100 mM HEPES, pH 7.5, 0.015% Brij-35, 0.2% Coating Reagent #3, and 50 mM EDTA.
Test compound was diluted to 50× of the final desired highest inhibitor concentration in reaction by 100% DMSO. 100 ul of this compound dilution was transferred to a well in a 96-well plate. For example, if desired highest inhibitor concentration in IC50 determination is 100 uM, then prepare 5000 uM of compound DMSO solution in this step.
Test compound was serially diluted by transferring 30 μl to 60 μl of 100% DMSO in the next well and so forth for a total of 10 concentrations. 100 μl of 100% DMSO was added to two empty wells for no compound control and no enzyme control in the same 96-well plate.
A new 96-well plate was marked as intermediate plate. 5 μl of compound serial dilution was transferred from source plate to the corresponding wells of the intermediate plate. 45 μl of 1x kinase base buffer (KB buffer) was added to each well of the intermediate plate. The intermediate plate was placed for 10 min on a shaker.
5 μl of each well was transferred from the 96-well intermediate plate to a 384-well plate in duplicates. For example, A1 of the 96-well plate is transferred to A1 and A2 of the 384-well plate. A2 of the 96-well plate is transferred to A3 and A4 of the 384-well plate, and so on.
IRAK4 and DTT in 1x kinase base buffer was added. The 2.5x enzyme mix contained 8.8 nM IRAK4 and 5 mM DTT.
Peptide 8, ATP, MgCl2 and MnCl2 were added in the 1x kinase base buffer. The 2.5x peptide mix contained 3.75 μM peptide 8, 92.5 μM ATP, 12.5 mM MgCl2 and 2.5 mM MnCl2.
Assay plate already contained 5 μl of compound in 10% DMSO. Added 10 μl of 2.5x enzyme solution to each well of the 384-well assay plate, except no enzyme control wells. The final concentration of IRAK4 in reaction was 3.5 nM. Added 10 μl of 1x kinase base buffer to no enzyme control wells in the assay plate. Incubated at room temperature for 10 min.
Added 10 μl of 2.5x peptide solution to each well of the 384-well assay plate. The final concentration of Peptide 8 and ATP was 1.5 μM and 37 μM, respectively. Incubated at for 40 minutes. Added 25 μl of stop buffer to stop reaction. Collected data on Caliper.
Copied conversion % data from Caliper program. Converted conversion % values to percent inhibition values. Percent inhibition=(max−conversion %)/(max−min)*100, where “max” means the conversion % of DMSO control and “min” means the conversion % of no enzyme control.
The compound numbers correspond to the compound numbers in Table 1. Compounds having an activity designated as “A” provided an IC50≦5 μM; compounds having an activity designated as “B” provided an IC50 of 5-20 μM; compounds having an activity designated as “C” provided an IC50 of 20-50 μM; and compounds having an activity designated as “D” provided an IC50≧50 μM. “NA” stands for “not assayed.”

Row | Structure (SMILES) | pIC50 [1] | pIC50 [2] | pIC50 (IRAK4)
1 | Clc1ccc2ncnc(N[C@H]3CC[C@H](N4CCC5(CC4)CC5)CC3)c2c1 [Compound I-36, N-((1r,4r)-4-(6-azaspiro[2.5]octan-6-yl)cyclohexyl)-6-chloro-quinazolin-4-amine] | 5.30 to 6.30 | ≥ 6.30 | ≥ 5.30
2 | C=Cc1ccc2ncnc(N[C@H]3CC[C@H](N4CCC5(CC4)CC5)CC3)c2c1 [Compound I-38, N-((1r,4r)-4-(6-azaspiro[2.5]octan-6-yl)cyclohexyl)-6-vinyl-quinazolin-4-amine] | ≥ 6.30 | ≥ 6.30 | ≥ 5.30
3 | CCc1ccc2ncnc(N[C@H]3CC[C@H](N4CCC5(CC4)CC5)CC3)c2c1 [Compound I-39, N-((1r,4r)-4-(6-azaspiro[2.5]octan-6-yl)cyclohexyl)-6-ethyl-quinazolin-4-amine] | ≥ 6.30 | ≥ 6.30 | ≥ 5.30
4 | OCCCc1ccc2ncnc(N[C@H]3CC[C@H](N4CCOCC4)CC3)c2c1 [Compound I-46, 3-(4-(((1r,4r)-4-morpholinocyclohexyl)amino)quinazolin-6-yl)propan-1-ol] | ≥ 6.30 | ≥ 6.30 | ≥ 5.30
5 | N#Cc1ccc2nccc(N[C@H]3CC[C@H](N4CCOCC4)CC3)c2c1 [Compound I-47, 4-(((1r,4r)-4-morpholinocyclohexyl)amino)quinoline-6-carbo-nitrile] | ≥ 6.30 | 5.30 to 6.30 | ≥ 5.30
6 | N#CCc1ccc2ncnc(N[C@H]3CC[C@H](N4CCC5(CC4)CC5)CC3)c2c1 [Compound I-52, 2-(4-(((1r,4r)-4-(6-azaspiro[2.5]octan-6-yl)cyclohexyl)amino)quin-azolin-6-yl)acetonitrile] | ≥ 6.30 | ≥ 6.30 | ≥ 5.30
7 | CN(C)[C@H]1CC[C@H](Nc2ncnc3ccc(CC#N)cc23)CC1 [Compound I-53, 2-(4-(((1r,4r)-4-(dimethylamino)cyclohexyl)amino)quinazolin-6-yl)acetonitrile] | ≥ 6.30 | 5.30 to 6.30 | ≥ 5.30
8 | Cc1cc(Nc2nc(N[C@H]3CC[C@H](N4CCOCC4)CC3)c3cc(Br)ccc3n2)sn1 [Compound I-56, 6-bromo-N2-(3-methylisothiazol-5-yl)-N4-((1r,4r)-4-morpholin-ocyclohexyl)quinazoline-2,4-diamine] | ≥ 6.30 | ≥ 6.30 | ≥ 5.30

Continued, values first:

Row | pIC50 [1] | pIC50 [2] | pIC50 (IRAK4) | Structure (SMILES)
9 | ≥ 6.30 | 5.30 to 6.30 | ≥ 5.30 | OCCc1ccc2ncnc(N[C@H]3CC[C@H](N4CCOCC4)CC3)c2c1 [Compound I-40, 2-(4-(((1r,4r)-4-morpholinocyclohexyl)amino)quinazolin-6-yl)ethanol]
10 | ≥ 6.30 | ≥ 6.30 | ≥ 5.30 | OC/C=C/c1ccc2ncnc(N[C@H]3CC[C@H](N4CCOCC4)CC3)c2c1 [Compound I-41, (E)-3-(4-(((1r,4r)-4-morpholinocyclohexyl)amino)quinazolin-6-yl)prop-2-en-1-ol]
11 | ≥ 6.30 | ≥ 6.30 | ≥ 5.30 | OCC#Cc1ccc2ncnc(N[C@H]3CC[C@H](N4CCC5(CC4)CC5)CC3)c2c1 [Compound I-44, 3-(4-(((1r,4r)-4-(6-azaspiro[2.5]octan-6-yl)cyclohexyl)amino)-quinazolin-6-yl)prop-2-yn-1-ol]
12 | < 5.30 | 5.30 to 6.30 | ≥ 5.30 | NC(=O)/C=C/c1ccc2ncnc(N[C@H]3CC[C@H](N4CCOCC4)CC3)c2c1 [Compound I-54, (E)-3-(4-(((1r,4r)-4-morpholinocyclohexyl)amino)quinazolin-6-yl)acrylamide]
13 | ≥ 6.30 | ≥ 6.30 | ≥ 5.30 | N#CCc1ccc2ncnc(N[C@H]3CC[C@H](N4CCC5(CC4)COC5)CC3)c2c1 [Compound I-58, 2-(4-(((1r,4r)-4-(2-oxa-7-azaspiro[3.5]nonan-7-yl)cyclohexyl)-amino)quinazolin-6-yl)acetonitrile]
14 | ≥ 6.30 | ≥ 6.30 | ≥ 5.30 | c1nc(N[C@H]2CC[C@H](N3CCOCC3)CC2)c2cc(-c3cn[nH]c3)ccc2n1 [Compound I-59, N-((1r,4r)-4-morpholinocyclohexyl)-6-(1H-pyrazol-4-yl)quinazolin-4-amine]
